Data on 1 compound can be found in patent US20250163119A1, “COMPOUNDS FOR THE TREATMENT OF DIABETES OR OBESITY” (Eli Lilly and Company, priority 2023, published 2025).

*1 amine or outer side, *2 acyl side, *3 side chain or, on linkers, in order; H or OH if unused. Where a SMILES comes first, the peptide text is derived from it. Side-chain parts run from the residue outwards. [ ]: non-standard residue; d: D form. The star is where a group is joined. C20 diacid = O=C(O)CCCCCCCCCCCCCCCCCCC(=O)*; γGlu = O=C(O)[C@H](CCC(=O)[*:2])N[*:1]; NMeI = CC[C@H](C)[C@H](NC)C(=O)O; AEEA = NCCOCCOCC(=O)O

The nature of data set [1]: In vivo Diet Induced Obesity (DIO) model, chronic dose administration. Also on record: species or system C57BL6 mice. Conditions: DIO mice; 30 nmol/kg s.c.; pooled data from four studies; mean. An excerpt: The DIO model represents a pre-diabetic state that is obese. These animals, although not diabetic, display insulin resistance, dyslipidemia, and hepatic steatosis, all characteristics of metabolic syndrome, after being placed on a high fat (60% Kcal from fat) diet for 12 weeks (Surwit R S et al., Diet-induced type II diabetes in C57BL/6J mice. Diabetes 37(9): 1163-7 (1988)). Assessment of body weight change from start of study, fat mass change from start of study, lean mass change from start of study, and fasting glucose or glucose change from vehicle in same study substantially as set forth below. In the case of SEQ ID NO:55 combined with SEQ ID NO:25, tibialis anterior muscle weight at the end of the study is also reported as a measure of effect on muscle weight.
Male C57BL6 mice 22-24 weeks old (on high fat diet since 6 weeks of age, Jackson Laboratories 3800050; Bar Harbor, ME) are housed 1 per cage and maintained on D12492 chow (60% lard high fat diet: Research diets New Brunswick NJ) for 2 weeks in the vivarium and on a normal light cycle prior to experiment start. Animals were randomized by body weight to treatment groups using block randomization. On day 1 of experiment animals and food were weighed and recorded. Animals were separated in to two equal groups and started on separate days (data combined) to simplify the logistics of the study. Animals are given a single subcutaneous injection (s.c.) of the indicated treatment in 40 mM Tris HCl pH8.0+50 mM D-mannitol+0.02% polysorbate 80 on days 1(start), 4, 7, 10, and 13 of experiment at a volume of 10 ml/kg. […]
From study day 1 to study day 14 the animals were weighed daily prior to dose administration. […] The weight was recorded.
On Study Day 14, the animals were fasted overnight (approximately 16-18 hours) by placing them in a clean cage with a clean wire rack without food but allowed access to water, and on day 15 animals were subjected to fasting blood glucose measurement as follows; the tail of the animal was resected and a blood samples was collected and blood glucose was measured using an Accu-Chek Aviva glucose meter (Roche; Indianapolis, IN). Statistical significance ([…] vs. 0 dose; one way ANOVA Dunnett's post hoc) was calculated using GraphPad Prism software (La Jolla, Ca).
On study day 1 and study day 14 body composition was analyzed using Quantitative Nuclear Magnetic Resonance EchoMRI analyzer (EMR-166-s, EchoMRI; Houston Tx). […] Change in mass is calculated by subtraction of […].
On study day 15, following tail bleed for blood glucose, animals were sacrificed by C02 asphyxiation and the right tibialis anterior muscle was dissected. […] Weight was recorded and, in the case of relative weight, Tibialis anterior weight in milligrams was divided by body weight in grams. […]

The nature of data set [2]: Association state determination by Sedimentation Velocity Analytical UltraCentrifugation (SV-AUC). The data set is classed as physicochemical. The method, then: SV-AUC was performed at 20° C. using a Beckman Optima with AN 60 Ti rotor and final rotor speed of 60,000 rpm. Peptides were dialyzed into 5 mM phosphate pH 7 or 1× phosphate buffered saline (PBS) pH 7.2. Samples were adjusted to the desired concentration (0.1 mg/mL, 1 mg/mL, or 10 mg/mL) using relevant buffer as needed. Both samples and buffer were passed through […] PVDF centrifugal filter units. The filtered samples were loaded into the sample sectors of the cells; filtered buffer alone was loaded in the reference sector of the cells. A Wavelength Scan was performed as the first step to choose a suitable lambda […] value for the given compound with 1-1.2 OD at the concentration(s) tested; this value was generally between 225 nm and 254 nm and used for Method Scan in the next step. In the Method Scan, both absorbance and interference detection modules were used. Temperature equilibration was set as first stage with 0 rpm rotor speed for 3 hours. Sedimentation velocity was set as second stage with rotor speed at 60,000 rpm. 300 scans with frequency of 60 seconds or 500 scan counts with frequency of 120 seconds were performed at the designated wavelength. Data were analyzed with SEDFIT software wherein a continuous c(s) distribution model was applied; the setting of relevant parameters is shown in Table 4 and Table 5; sedimentation coefficient (s) values were reported in Svedherg units (S).
The experiment to characterize a compound comprising SEQ ID NO:54 was performed at 300 scan counts with frequency of 60 seconds; for all other tested polypeptides, the experiments were performed at 500 scan counts with frequency of 120 seconds.

[3] abbreviates: 0.1 mg/mL, 1x PBS, pH 7.2, 20° C.

For `CC[C@H](C)[C@H](NC)C(=O)N[C@H](C(=O)N[C@@H](CC(C)C)C(=O)N[C@@H](CO)C(=O)N[C@@H](CC(C)C)C(=O)N[C@@H](CC(=O)O)C(=O)N[C@H](C(=O)N1CCC[C@H]1C(=O)N[C@H](C(=O)NCC(=O)N[C@@H](CC(C)C)C(=O)N[C@@H](CC(C)C)C(=O)N[C@@H](CCC(N)=O)C(=O)N[C@H](C(=O)N[C@@H](CC(C)C)C(=O)N[C@@H](CC(C)C)C(=O)N[C@@H](CCC(=O)O)C(=O)N[C@@H](CCC(N)=O)C(=O)N[C@@H](CCC(=O)O)C(=O)N[C@@H](CCCCN)C(=O)N[C@@H](CCC(N)=O)C(=O)N[C@@H](CCC(=O)O)C(=O)N[C@@H](CCCCN)C(=O)N[C@@H](CCC(=O)O)C(=O)N[C@@H](CCCCN)C(=O)N[C@@H](CCC(N)=O)C(=O)N[C@@H](CCC(N)=O)C(=O)N[C@@H](C)C(=O)N[C@@H](CCCCNC(=O)COCCOCCNC(=O)COCCOCCNC(=O)CC[C@H](NC(=O)CC[C@H](NC(=O)CCCCCCCCCCCCCCCCCCC(=O)O)C(=O)O)C(=O)O)C(=O)N[C@H](C(=O)N[C@@H](CC(N)=O)C(=O)N[C@@H](C)C(=O)N[C@@H](CCC(N)=O)C(=O)N[C@H](C(=O)N[C@@H](CC(C)C)C(=O)N[C@@H](C)C(=O)N[C@@H](CCC(N)=O)C(=O)N[C@H](C(N)=O)C(C)C)[C@@H](C)CC)[C@@H](C)O)[C@@H](C)CC)[C@@H](C)CC)C(C)C)C(C)C` [SEQ ID NO: 54] (H-[NMeI]VLSLDVPIGLLQILLEQEKQEKEKQQAK([AEEA-AEEA-γGlu-γGlu-C20 diacid])TNAQILAQV-NH2), in data set [1], the “Fat mass change” value is -4.05 g, the “body weight change” value is -3.75 g, the “fasting blood glucose (% reduction from vehicle)” value is on record as 37.01% and the “lean mass change” value was found to be 0.60 g. Moreover, in data set [2] (setting [3]), the “Mw (SEDFIT), apparent molecular weight” value came to 38787 Da; the “Sedimentation Coefficient” value turned out to be 3.5 S; the “Sedimentation Coefficient species (% of total)” value was 89%. The “self-association state from sedimentation coefficients” value in data set [2] (0.1, 1 and 10 mg/mL for SEQ ID NO:54) is “higher order oligomers were the major species”.
